Source: ChEMBL document CHEMBL5108065 (J Med Chem, 2022)
In brackets after ≈: the same amount, converted by molar mass.

Legend:
[1] = Inhibition of Plasmodium vivax PMX by FRET assay
[2] = Inhibition of Plasmodium falciparum PMV by FRET assay
[3] = Metabolic stability in human hepatocytes assessed as intrinsic clearance measured per 10^6 cells; type: functional, Hepatocyte
[4] = Solubility of the compound in FeSSIF at pH 5.8; type: physicochemical; conditions: simulated gi fluid
[5] = Lipophilicity, log D of the compound; type: physicochemical; conditions: octanol/water
Cathepsin D = Cathepsin D (Homo sapiens, UniProt P07339); test: Inhibition of human cathepsin D
Sequence of Cathepsin D (P07339 65-162 limits assumed): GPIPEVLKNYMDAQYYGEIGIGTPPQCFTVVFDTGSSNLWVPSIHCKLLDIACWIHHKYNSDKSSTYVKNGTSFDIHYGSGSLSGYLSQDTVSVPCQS
Sequence of Cathepsin D (P07339 169-412 limits assumed): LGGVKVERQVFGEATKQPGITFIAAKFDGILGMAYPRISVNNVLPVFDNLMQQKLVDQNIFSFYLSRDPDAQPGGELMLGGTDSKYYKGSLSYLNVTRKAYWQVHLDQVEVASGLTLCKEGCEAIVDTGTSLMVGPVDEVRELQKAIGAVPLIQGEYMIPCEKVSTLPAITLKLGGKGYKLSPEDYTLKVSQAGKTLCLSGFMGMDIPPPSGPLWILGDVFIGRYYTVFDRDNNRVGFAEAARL

Plasmodium falciparum [6] = test: Antiplasmodial activity against sensitive Plasmodium falciparum NF54 infected in human red blood cells assessed as reduction in [3H]-hypoxanthine incorporation pretreated for 48 hrs followed by [3H]-hypoxanthine addition measured after 24 hrs by scintillation counting method; type: functional, organism-based
Plasmodium falciparum [7] = test: Antimalarial activity against Plasmodium falciparum K1 harbouring Pf-crt, Pf-mdrl,Pf-dhfr, Pf-dhps mutated loci assessed as inhibition of parasite growth pretreated for 48 hrs followed by [3H]-hypoxanthine addition measured after 24 hrs by scintillation counting method; type: functional, organism-based
Plasmodium falciparum [8] = test: Antimalarial activity against Plasmodium falciparum TM90C2b harbouring Pf-crt, Pf-mdrl,Pfd-hfr, Pf-cytbQ0 mutated loci assessed as inhibition of parasite growth pretreated for 48 hrs followed by [3H]-hypoxanthine addition measured after 24 hrs by scintillation counting method; type: functional, organism-based
Plasmodium falciparum [9] = test: Antimalarial activity against Plasmodium falciparum Dd2048 harbouring pfpi4k mutated loci assessed as inhibition of parasite growth pretreated for 48 hrs followed by [3H]-hypoxanthine addition measured after 24 hrs by scintillation counting method; type: functional, organism-based
Plasmodium falciparum [10] = test: Antimalarial activity against DDD107498 resistant Plasmodium falciparum Dd2 harbouring pfeef2 mutated loci assessed as inhibition of parasite growth pretreated for 48 hrs followed by [3H]-hypoxanthine addition measured after 24 hrs by scintillation counting method; type: functional, organism-based
Plasmodium falciparum [11] = test: Antimalarial activity against DSM265 resistant Plasmodium falciparum Dd2 harbouring pf-dhodh mutated loci assessed as inhibition of parasite growth pretreated for 48 hrs followed by [3H]-hypoxanthine addition measured after 24 hrs by scintillation counting method; type: functional, organism-based
Plasmodium falciparum [12] = test: Antimalarial activity against ELQ300 resistant Plasmodium falciparum Dd2 harbouring pfcytB mutated loci assessed as inhibition of parasite growth pretreated for 48 hrs followed by [3H]-hypoxanthine addition measured after 24 hrs by scintillation counting method; type: functional, organism-based
Plasmodium falciparum [13] = test: Antimalarial activity against KAF156 resistant Plasmodium falciparum Dd2 harbouring pf-carl mutated loci assessed as inhibition of parasite growth pretreated for 48 hrs followed by [3H]-hypoxanthine addition measured after 24 hrs by scintillation counting method; type: functional, organism-based
Plasmepsin X = Plasmepsin X (Plasmodium falciparum (isolate 3D7), UniProt Q8IAS0); test: biochemical
Sequence of Plasmepsin X (Q8IAS0 whole entry): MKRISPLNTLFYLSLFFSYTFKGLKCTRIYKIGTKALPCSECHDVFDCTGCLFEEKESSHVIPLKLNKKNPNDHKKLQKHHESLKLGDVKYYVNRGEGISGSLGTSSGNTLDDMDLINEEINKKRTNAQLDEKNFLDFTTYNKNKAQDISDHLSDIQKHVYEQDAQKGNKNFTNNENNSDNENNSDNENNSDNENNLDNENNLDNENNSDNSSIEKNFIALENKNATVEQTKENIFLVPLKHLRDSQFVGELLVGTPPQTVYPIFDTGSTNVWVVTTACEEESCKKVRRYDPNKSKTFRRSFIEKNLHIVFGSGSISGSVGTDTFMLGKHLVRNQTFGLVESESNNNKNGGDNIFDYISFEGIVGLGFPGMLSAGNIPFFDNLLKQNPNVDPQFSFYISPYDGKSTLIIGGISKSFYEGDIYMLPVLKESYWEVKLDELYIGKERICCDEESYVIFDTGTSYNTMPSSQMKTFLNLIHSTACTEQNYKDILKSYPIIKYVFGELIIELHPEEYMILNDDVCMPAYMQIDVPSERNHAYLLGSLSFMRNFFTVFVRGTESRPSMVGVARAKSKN
Description: Inhibition of Plasmodium falciparum recombinant C-terminal TEV cleavable 8his-tagged PMX by FRET assay

Renin = target: T1, Renin (Homo sapiens, UniProt P00797); test: Inhibition of human renin
T1 sequence (P00797 whole entry): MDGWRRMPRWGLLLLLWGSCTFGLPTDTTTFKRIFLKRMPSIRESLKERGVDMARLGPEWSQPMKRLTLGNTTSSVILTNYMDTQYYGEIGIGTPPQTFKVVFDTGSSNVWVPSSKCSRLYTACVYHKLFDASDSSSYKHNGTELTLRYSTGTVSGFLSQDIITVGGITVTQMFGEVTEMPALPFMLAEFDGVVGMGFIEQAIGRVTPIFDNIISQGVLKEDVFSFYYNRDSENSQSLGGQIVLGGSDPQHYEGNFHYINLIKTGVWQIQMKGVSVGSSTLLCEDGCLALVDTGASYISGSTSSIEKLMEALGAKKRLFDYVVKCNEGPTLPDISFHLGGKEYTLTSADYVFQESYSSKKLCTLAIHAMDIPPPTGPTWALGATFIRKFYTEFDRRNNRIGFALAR

[14] = Inhibition of BACE (unknown origin); set-up: species or system Homo sapiens
Homo sapiens = species on record: Homo sapiens; test: Inhibition of BACE (unknown origin) at 10 uM relative to control

Compound | IC50 [1] | IC50 [2] | intrinsic clearance [3] | solubility [4] | logD [5] | IC50 (Cathepsin D) | IC50 (Plasmodium falciparum [6]) | IC50 (Plasmodium falciparum [7]) | IC50 (Plasmodium falciparum [8]) | IC50 (Plasmodium falciparum [9]) | IC50 (Plasmodium falciparum [10]) | IC50 (Plasmodium falciparum [11]) | IC50 (Plasmodium falciparum [12]) | IC50 (Plasmodium falciparum [13]) | IC50 (Plasmepsin X) | IC50 (Renin) | IC50 [14] | inhibition (Homo sapiens)
C[C@@]1(c2cccc(Nc3ccccc3)c2Cl)CC(=O)N(C2CCOCC2)C(=N)N1 | 0.031 µM | 2.7 µM | 28 µL/min | 1057 µM (≈ 436 µg/mL) | 2.2 | 0.058 µM | 0.107 µM | 0.112 µM | 0.062 µM | 0.087 µM | 0.082 µM | 0.078 µM | 0.096 µM | 0.083 µM | 0.015 µM |  |  | 
[H]/N=C1\N[C@](C)(c2cccc(Nc3cnc(C4CC4)nc3)c2Cl)CC(=O)N1[C@H]1CCO[C@@H](C)C1 |  |  | 4 µL/min | 1372 µM (≈ 643 µg/mL) | 2 | 0.215 µM |  |  |  |  |  |  |  |  | 0.009 µM | 2.36 µM | > 10 µM | 
C[C@@]1(c2cccc(NC(=O)c3ccccc3)c2Cl)CC(=O)N(C2CCOCC2)C(=N)N1 |  | > 5 µM | 4 µL/min |  | 1.2 | > 10 µM |  |  |  |  |  |  |  |  | 0.032 µM |  |  | 
C[C@@]1(c2cccc(Nc3ccc(C4CC4)nc3)c2Cl)CC(=O)N(C2CCOCC2)C(=N)N1 |  |  | 3 µL/min | 1161 µM (≈ 527 µg/mL) | 2.1 | 1.19 µM |  |  |  |  |  |  |  |  | 0.037 µM | 1.07 µM |  | 52%
